How the values were obtained:
[1] = mn = molality of the nth substance listed, in mol/kg; settings: 86.8 kPa, Liquid; for viscosity: Capillary tube (Ostwald / Ubbelohde) method; for speed of sound: Sing-around technique in a fixed-path interferometer; for mass density: Vibrating tube method
[2] = refractive index (Na D-line) (dimensionless); mn = molality of the nth substance listed, in mol/kg; settings: 86.8 kPa, Liquid, Standard Abbe refractometry
[3] = 86.8 kPa, Liquid; for viscosity: Capillary tube (Ostwald / Ubbelohde) method; for speed of sound: Sing-around technique in a fixed-path interferometer; for mass density: Vibrating tube method
[4] = refractive index (Na D-line) (dimensionless); settings: 86.8 kPa, Liquid, Standard Abbe refractometry

CCCCn1cc[n+](C)c1.[Br-] [1-butyl-3-methylimidazolium bromide] + CC#N
Settings	mass density, [1] [kg/m3]	refractive index, [2]	speed of sound, [1] [m/s]	viscosity, [1] [mPa·s]
288.15 K, m1 = 0.1046	796.218	1.3492	1323.5	0.4
288.15 K, m1 = 0.2021	803.662	1.3528	1327.1	0.421
288.15 K, m1 = 0.2996	810.75	1.3557	1330.3	0.44
298.15 K, m1 = 0.1046	785.312	1.3449	1283.2	0.363
298.15 K, m1 = 0.2021	792.989	1.3479	1287.1	0.38
298.15 K, m1 = 0.2996	800.167	1.3509	1290.3	0.398
308.15 K, m1 = 0.1046	774.491	1.3402	1243.2	0.331
308.15 K, m1 = 0.2021	782.263	1.3429	1247.2	0.346
308.15 K, m1 = 0.2996	789.528	1.3462	1250.6	0.361
318.15 K, m1 = 0.1046	763.59	1.3359	1203.1	0.304
318.15 K, m1 = 0.2021	771.427	1.3381	1207.3	0.318
318.15 K, m1 = 0.2996	778.947	1.3402	1210.8	0.331

CC#N [acetonitrile]
Settings	mass density, [3] [kg/m3]	refractive index, [4]	speed of sound, [3] [m/s]	viscosity, [3] [mPa·s]
288.15 K	787.395	1.3461	1319.1	0.388
298.15 K	776.615	1.3412	1278.6	0.344
308.15 K	765.81	1.3371	1238.3	0.313
318.15 K	754.851	1.3327	1198.2	0.289
